# Source: patent US20240408175A1, “BMP9 OR AN AGONIST THEREOF AND ITS USES RELATED TO REDUCING METASTASIS OF CANCER” (THE UAB RESEARCH FOUNDATION, priority 2021, published 2024)
# Key:
# HEYT30 cells = assay: Cell survival under anchorage independence, HEYT30; assay type: cell-based, human
# Experimental: (§1) For Live/Dead analysis under anchorage independence, 1,000 cells were seeded in 96-well hydrogel-coated ultra-low attachment (ULA) plates (Corning #4515) for times indicated. Growth factor treatment was done under low serum 2.5% FBS condition (Cells were plated in 10% FBS to allow spheroid formation before beginning treatment). Cells were then stained with 2 μM Calcein-AM and 4 μM Ethidium-homodimer for 30 min before imaging. z-stacked images were obtained using the Zeiss LSM700 Confocal microscope (Microscopy and Flow Cytometry Core, University of South Carolina) and NIKON A1 Confocal microscope (UAB High Resolution Imaging Facility). Fluorescent quantification was performed using ImageJ Fiji software to calculate the Corrected Total Cell Fluorescent (CTCF)=Integrated Density−(Area of selected cell×Mean fluorescence of background readings) per spheroid.
# SOX2 promoter = assay: Chromatin immunoprecipitation (ChIP) at SOX2 promoter regions; assay type: cell-based, human
# Experimental: ChIP was carried out using a modified version of a previously described protocol (Medeiros et al., 2009). Cells were grown to 80% confluency in 150 mm culture dishes. Cells were fixed at room temperature in 1% Paraformaldehyde solution (dilute 8% PFA in serum free media to get 1%) and rocked for 10 minutes. 10×Glycine was added to the plate and allowed to sit for 5 minutes at room temperature. Cells were scraped down and cell suspension were transferred to a cold centrifuge tube for centrifugation at 720 RCF at 4° C. for 10 minutes. Cells were rinsed with 1X Phosphate buffer saline and centrifugation repeated. Cell pellet was next resuspended in lysis buffers described in (Medeiros et al., 2009) to obtain nuclei pellet. This was followed by chromatin sonication, using QSonica sonicator (model CL-188) for four cycles (30% amplitude for 15 secs ON and 30 secs OFF) to obtain DNA fragments with a length from 150 to 300 bp. 1/10th of the supernatant was stored as input control. ChIP was performed using Protein A magnetic beads (Dynabeads, Invitrogen #10001D) to couple […] ChIP-grade antibodies for SMAD1, SMAD3, H3K27me3, H3K4me3, or rabbit IgG antibody overnight at 4 °C. DNA was purified using the PureLink Quick PCR Purification kit (Thermo Fisher Cat #: K310001) and enrichment of DNA fragments analyzed via relative quantitative RT-PCR (qPCR) using ChIP primers (see Table 2) to specific locations. Negative and positive control regions were included in all analysis.
# [1] = tested on: 1-kb SOX2 promoter reporter; assay: pGL3-SOX2 promoter-reporter luciferase assay in HEK293 cells; assay type: cell-based, human; details: 10 nM, 24 hours, serum-free
# Experimental: HEK293 cells were transfected with the pGL3-SOX2 promoter-luciferase reporter plasmid construct and SV40-renilla for 24h. […] According to the manufacturer's instruction, cells were collected and lysed in […] passive lysis buffer. To measure luciferase activity, […] of lysate was added to […] of dual Luciferase Assay Reagent, and luminescence was quantitated using a luminometer (Biotek).
# [2] = ELISA of BMP9 in plasma from mice; assay type: in vivo; details: PA1-luc-GFP mice, daily i.p. administration
# OCT4 or NANOG = assay: qRT-PCR of OCT4 and NANOG under 3D condition; assay type: cell-based, human; details: PA1 cells
# Experimental: Lysate and RNA preparation: 100,000-300,000 cells were seeded in a poly-HEMA coated 6-well plate for indicated times in full serum unless indicated otherwise. Cells were collected by centrifugation and lysed with trizol for RNA extraction or direct 2× lysis buffer for protein lysates.
# A2780CP cells = assay: Cell survival under anchorage independence, A2780CP; assay type: cell-based, human; details: dose and time course
# Experimental: as §1
# HEY-T30 cells = assay: Flow cytometry, Annexin V / PI apoptosis; assay type: cell-based, human; details: 3D, 48 hours; 10 nM BMP9, 300 nM paclitaxel or combination
# Experimental: 700,000 cells were seeded in 60 mm poly-hema coated culture dishes, followed by incubation with 300 nM paclitaxel and 10 nM BMP9 alone or in simultaneous combination for 48 hours. Cells were centrifuged and resuspended in 1×binding buffer, followed by incubation with Annexin V and PI according to the manufacturer's procedure manual. The stained cell suspension was added to FACS tubes containing 200 μl 1×binding buffer and measured by BD LSRFortessa flow cytometer. The data were analyzed using BD FACSDiva (Becton Dickinson, NJ, USA) software. Annexin V-positive and PI-negative cells were considered to be in the early apoptotic phase, Annexin V-negative and PI-positive cells were considered to be in the necrosis phase, cells having positive staining for both Annexin-V and PI were considered to undergo late apoptosis and cells negative for Annexin V and PI were considered to be live cells.
# PA1-luc-GFP cells = assay: PA1-luc-GFP intraperitoneal xenograft; assay type: in vivo, NOD-SCID mice
# Experimental: All animal studies were performed in accordance with the Institutional Animal Care and Use Committee at the University of Alabama Birmingham. Female SCID mice (Key resources table) at 5-7 weeks of age were housed under pathogen-free conditions at the Animal Research Facility at UAB. 1.5×10^6 GFP-luciferase SK-OV3 cells or 3×10^6 GFP-luciferase expressing PA1 cells were intraperitoneally injected. Mice were monitored daily, with girth and weight measurement taken twice a week. Tumor progression was tracked weekly using the IVIS Lumina III In vivo Imaging System (Caliper Life Sciences, MA) at UAB's Small Animal Imaging Facility. rhBMP9 was administered at the time of tumor cell injection followed by daily intraperitoneal (i.p.) injections of 1 mg/mL in 4 mM HCl+PBS+DI water (Vehicle), to achieve a final 5 mg/kg dose. For metastasis and tumor growth analysis, mice were euthanized between 21-50 days depending on the cell line. At necropsy, ascites, if present, were collected and volumes measured when possible, tumor weights in the omentum and other organs were recorded and collected when possible. For survival studies, mice that reached end-point criteria, including continued weight loss, respiratory trouble and permanent recumbency were euthanized. For microscopic analysis of tissues, formalin-fixed tissues were processed, paraffin-embedded, and sectioned at 5 μm thickness and H&E stained at UAB's histology core.
# (§2) IHC was performed using the BioCare Mach4 Universal Detection Kit. Specifically, anti-SOX2 was diluted in Da Vinci Green Diluent and incubated overnight at 4° C. in a humidified chamber. HRP was detected with 3,30-diaminobenzidine (DAB) substrate for 4 minutes. TUNEL staining was performed according to the manufacturer's instruction. Slides were examined and images captured with EVOS M7000 microscope. Cell profiler (Stirling et al., 2021) and Image J Fiji software were used for image quantification.
# SOX2 = SOX2 levels in xenograft tumors (IHC, qRT-PCR); assay type: in vivo; details: IHC and qRT-PCR, vs vehicle control-treated mice
# Experimental: as §2
# HEY parental cells = assay: Cell survival under anchorage independence, HEY parental; assay type: cell-based, human; details: 1, 5, 10 nM for 24, 48, and 72 hours
# Experimental: as §1
substance,measurement,setting,value
"BMP9: recombinant human bone morphogenetic protein 9 (BMP9/GDF2), TGF-β family ligand",reduction in percentage live cells,HEYT30 cells; 10 nM,63%
same,reduction in percentage live cells,HEYT30 cells; 1 and 5 nM,about 35%
same,SMAD1 binding at sites p1 and p6 (ChIP),SOX2 promoter; 1 h treatment,significant enrichment
same,histone H3K27me3 on the SOX2 promoter (ChIP),"SOX2 promoter; PA1, 1 hour rhBMP9",significantly enriched
same,luciferase activity of SOX2 promoter reporter,[1],significantly reduce
same,BMP9 in plasma (ELISA),[2],elevated
same,effect on OCT4 or NANOG,OCT4 or NANOG,did not have any significant effect
same,decrease in percentage live cells,A2780CP cells,25-55%
same,apoptosis in cells,HEY-T30 cells,6.8%
same,omental tumor burden,"PA1-luc-GFP cells; 5 mg/kg i.p. daily, 7-week study, vs vehicle",significantly lower
same,overall i.p. tumor burden over time by bioluminescence imaging,"PA1-luc-GFP cells; 5 mg/kg i.p. daily, vs vehicle",significant reduction
same,infiltrated tumor cells in omental tumors (histology),PA1-luc-GFP cells; vs vehicle,significantly fewer
same,increase in TUNEL-positive cells in tumors,PA1-luc-GFP cells; vs vehicle-treated mice,a factor of two increase
same,SOX2 levels in xenograft tumors,SOX2,overall reduction
same,decrease in percentage live cells,HEY parental cells,50-65%
